The source made the active and inactive calls. The calls are words filed in the database; no cut-off is given here.
Experiments:
Format in all cases: cell-based
Details in all cases: HEK-293T
[1] = target: T1, Nucleotide-binding oligomerization domain-containing protein 1 (Homo sapiens) (UniProt Q9Y239); assay: Induction of human NOD1 activity expressed in HEK293T cells assessed as NFKB activation at 0.1 to 1000 ng/ml by luciferase reporter assay
T1 sequence (whole entry): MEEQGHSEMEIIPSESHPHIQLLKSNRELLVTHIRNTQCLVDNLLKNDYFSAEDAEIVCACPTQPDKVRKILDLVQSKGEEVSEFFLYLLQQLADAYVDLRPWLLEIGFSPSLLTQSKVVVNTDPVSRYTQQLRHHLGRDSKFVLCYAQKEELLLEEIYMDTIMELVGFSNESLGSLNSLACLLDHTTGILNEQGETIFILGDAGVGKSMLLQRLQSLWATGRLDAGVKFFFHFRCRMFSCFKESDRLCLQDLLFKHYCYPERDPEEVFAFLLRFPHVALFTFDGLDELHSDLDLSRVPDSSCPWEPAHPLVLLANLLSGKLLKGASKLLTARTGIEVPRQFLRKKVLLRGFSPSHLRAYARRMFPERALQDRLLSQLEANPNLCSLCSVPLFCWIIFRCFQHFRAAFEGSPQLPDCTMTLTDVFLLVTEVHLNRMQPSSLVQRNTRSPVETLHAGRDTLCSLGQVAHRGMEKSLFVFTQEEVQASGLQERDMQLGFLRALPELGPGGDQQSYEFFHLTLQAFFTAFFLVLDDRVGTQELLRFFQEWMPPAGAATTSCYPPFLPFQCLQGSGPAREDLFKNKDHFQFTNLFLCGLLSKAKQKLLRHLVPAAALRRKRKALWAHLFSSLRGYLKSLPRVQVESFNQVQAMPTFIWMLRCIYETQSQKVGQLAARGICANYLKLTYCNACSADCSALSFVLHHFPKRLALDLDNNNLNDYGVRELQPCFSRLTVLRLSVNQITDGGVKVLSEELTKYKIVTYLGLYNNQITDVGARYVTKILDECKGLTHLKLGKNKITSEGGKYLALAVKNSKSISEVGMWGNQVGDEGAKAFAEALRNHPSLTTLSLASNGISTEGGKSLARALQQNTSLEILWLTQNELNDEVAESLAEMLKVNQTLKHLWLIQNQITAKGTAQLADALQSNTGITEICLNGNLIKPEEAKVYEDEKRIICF

[2] = target: T1, Nucleotide-binding oligomerization domain-containing protein 1 (Homo sapiens); assay: Induction of human NOD1 activity expressed in HEK293T cells assessed as NFKB activation at 1 to 100 ng/ml by luciferase reporter assay
[3] = target: T1, Nucleotide-binding oligomerization domain-containing protein 1 (Homo sapiens); assay: Induction of human NOD1 activity expressed in HEK293T cells assessed as NFKB activation at 5 mM

Activity [1] | Activity [2] | Activity [3] | SMILES
Active | – | – | CC(=O)N[C@@H]1[C@@H](OC(C)C(=O)N[C@@H](C)C(=O)N[C@H](CCC(=O)N[C@@H](CCC[C@@H](N)C(=O)O)C(=O)O)C(=O)O)[C@H](O[C@@H]2O[C@H](CO)[C@@H](O)[C@H](O)[C@H]2NC(C)=O)[C@@H](CO)O[C@H]1O (stereo partly specified)
– | Active | – | CC(=O)N[C@H]1[C@H](O[C@H]2[C@H](OC(C)C(=O)N[C@@H](C)C(=O)N[C@H](CCC(=O)N[C@@H](CCC[C@@H](N)C(=O)O)C(=O)O)C(=O)O)[C@@H](NC(C)=O)[C@@H]3OC[C@H]2O3)O[C@H](CO)[C@@H](O)[C@@H]1O (stereo partly specified)

The remaining lines, values behind:

SMILES | Activity [1] | Activity [2] | Activity [3]
C[C@H](N)C(=O)N[C@H](CCC(=O)N[C@@H](CCC[C@@H](N)C(=O)O)C(=O)O)C(=O)O | – | Active | –
CC(=O)N[C@@H]1[C@@H](OC(C)C(=O)N[C@@H](C)C(=O)N[C@H](CCC(=O)N[C@@H](CCC[C@@H](N)C(=O)O)C(=O)O)C(=O)O)[C@H](O)[C@@H](CO)O[C@H]1O (stereo partly specified) | Active | – | Active
N[C@H](CCC[C@H](NC(=O)CC[C@@H](N)C(=O)O)C(=O)O)C(=O)O | – | Active | –

— ChEMBL document CHEMBL1764998, “Structures, synthesis, and human Nod1 stimulation of immunostimulatory bacterial peptidoglycan fragments in the environment” (J Nat Prod, 2011)
